Laboratory results as given in PubChem BioAssay (NCI).
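96-well plates; 48 h exposure; 5 concentrations. Endpoints by linear interpolation between flanking doses. Not reached: highest tested concentration assigned. TGI denotes the concentration required for complete inhibition of growth.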

Legend:
Assay in all cases: NCI anticancer screen, dose series, 48 h
A549 NSCLC = tested on: A549 NSCLC
DLD-1 colon = tested on: DLD-1 colon
DMS 273 small cell lung = tested on: DMS 273 small cell lung
MOLT-4 leukemia = tested on: MOLT-4 leukemia
HOP-62 NSCLC = tested on: HOP-62 NSCLC
M14 melanoma = tested on: M14 melanoma
MALME-3M melanoma = tested on: MALME-3M melanoma
HT29 colon = tested on: HT29 colon
EKVX NSCLC = tested on: EKVX NSCLC
LOX IMVI melanoma = tested on: LOX IMVI melanoma
ACHN renal = tested on: ACHN renal
COLO 205 colon = tested on: COLO 205 colon
TK-10 renal = tested on: TK-10 renal
HCT-116 colon = tested on: HCT-116 colon
IGROV1 ovarian = tested on: IGROV1 ovarian
U251 CNS = tested on: U251 CNS
UACC-257 melanoma = tested on: UACC-257 melanoma
CCRF-CEM leukemia = tested on: CCRF-CEM leukemia
KM12 colon = tested on: KM12 colon
RPMI-8226 leukemia = tested on: RPMI-8226 leukemia
OVCAR-5 ovarian = tested on: OVCAR-5 ovarian
A498 renal = tested on: A498 renal
XF 498 CNS = tested on: XF 498 CNS
RXF 393 renal = tested on: RXF 393 renal
OVCAR-3 ovarian = tested on: OVCAR-3 ovarian
CAKI-1 renal = tested on: CAKI-1 renal
UACC-62 melanoma = tested on: UACC-62 melanoma
DMS 114 small cell lung = tested on: DMS 114 small cell lung
SK-MEL-2 melanoma = tested on: SK-MEL-2 melanoma
LXFL 529 NSCLC = tested on: LXFL 529 NSCLC
KM20L2 colon = tested on: KM20L2 colon
SK-OV-3 ovarian = tested on: SK-OV-3 ovarian
UO-31 renal = tested on: UO-31 renal
NCI-H226 lung = tested on: NCI-H226 lung
NCI-H460 lung = tested on: NCI-H460 lung
SN12C renal = tested on: SN12C renal
SF-268 CNS = tested on: SF-268 CNS
SK-MEL-5 melanoma = tested on: SK-MEL-5 melanoma
SNB-19 CNS = tested on: SNB-19 CNS
NCI-H522 lung = tested on: NCI-H522 lung
SW-620 colon = tested on: SW-620 colon
786-0 renal = tested on: 786-0 renal
SF-539 CNS = tested on: SF-539 CNS
HL-60(TB) leukemia = tested on: HL-60(TB) leukemia
M19-MEL melanoma = tested on: M19-MEL melanoma
SNB-78 CNS = tested on: SNB-78 CNS
OVCAR-8 ovarian = tested on: OVCAR-8 ovarian
SF-295 CNS = tested on: SF-295 CNS
NCI-H23 lung = tested on: NCI-H23 lung
K-562 leukemia = tested on: K-562 leukemia
SNB-75 CNS = tested on: SNB-75 CNS
HCC-2998 colon = tested on: HCC-2998 colon

Work on `N=C1CSC2=NC3=C(CCC/C3=C\c3ccccc3)C(c3ccccc3)N12` (configuration not stated) yielded a TGI (A549 NSCLC) of 19.1 µM, a TGI (DLD-1 colon) of 19.4 µM and a TGI (DMS 273 small cell lung) of 15.8 µM. For the same molecule, the TGI (MOLT-4 leukemia) was 8.03 µM, the TGI (HOP-62 NSCLC) was 25.6 µM and the TGI (M14 melanoma) was 13 µM. It also gave a TGI (MALME-3M melanoma) of 39.3 µM, a TGI (HT29 colon) of 11.5 µM and a TGI (EKVX NSCLC) of 9.54 µM. It also gave a TGI (LOX IMVI melanoma) of 4.96 µM, a TGI (ACHN renal) of 24.8 µM and a TGI (COLO 205 colon) of 21.3 µM. For the same molecule, the TGI (TK-10 renal) was 18.1 µM, the TGI (HCT-116 colon) was 13.2 µM and the TGI (IGROV1 ovarian) was 20.1 µM. It also gave a TGI (U251 CNS) of 13.6 µM, a TGI (UACC-257 melanoma) of 30 µM and a TGI (CCRF-CEM leukemia) of 8.61 µM. It also gave a TGI (KM12 colon) of 13 µM, a TGI (RPMI-8226 leukemia) of 5.57 µM and a TGI (OVCAR-5 ovarian) of 20.1 µM. For the same molecule, the TGI (A498 renal) was 27.6 µM, the TGI (XF 498 CNS) was 35.1 µM and the TGI (RXF 393 renal) was 17.4 µM. It also gave a TGI (OVCAR-3 ovarian) of 8.24 µM, a TGI (CAKI-1 renal) of 29.2 µM and a TGI (UACC-62 melanoma) of 23 µM. The TGI (DMS 114 small cell lung) was 8.57 µM, the TGI (SK-MEL-2 melanoma) was 5.56 µM and the TGI (LXFL 529 NSCLC) was 17 µM. For the same molecule, the TGI (KM20L2 colon) was 16.8 µM, the TGI (SK-OV-3 ovarian) was 28.4 µM and the TGI (UO-31 renal) was 27.4 µM. For the same molecule, the TGI (NCI-H226 lung) was 35.1 µM, the TGI (NCI-H460 lung) was 14.7 µM and the TGI (SN12C renal) was 27.9 µM. It also gave a TGI (SF-268 CNS) of 32.9 µM, a TGI (SK-MEL-5 melanoma) of 19.3 µM and a TGI (SNB-19 CNS) of 19.9 µM. The TGI (NCI-H522 lung) was 9.71 µM, the TGI (SW-620 colon) was 15.2 µM and the TGI (786-0 renal) was 18.3 µM. For the same molecule, the TGI (SF-539 CNS) was 20 µM, the TGI (HL-60(TB) leukemia) was 6.3 µM and the TGI (M19-MEL melanoma) was 18.3 µM. For the same molecule, the TGI (SNB-78 CNS) was 23.6 µM, the TGI (OVCAR-8 ovarian) was 19.5 µM and the TGI (SF-295 CNS) was 19.4 µM. It also gave a TGI (NCI-H23 lung) of 15.6 µM, a TGI (K-562 leukemia) of 18.4 µM and a TGI (SNB-75 CNS) of 23.7 µM. For the same molecule, the TGI (HCC-2998 colon) was 10.6 µM.
